From patent publication US10736865B2, “Pharmaceutical formulations comprising 9-cis-retinyl esters in a lipid vehicle” (RETINAGENIX THERAPEUTICS, INC., priority 2009, dated 2020)

What was measured:
[1] = Retinoid levels in eyes and liver after 14 days of daily dosing; format: in vivo, Rpe65^−/− and C57Bl/6 mice
Procedure: (§1) Analyses of Retinoic Acid and Non-polar Retinoids—All experimental procedures related to extraction, retinoid derivatization and separation of retinoids were done under dim red light provided by a Kodak No. 1 safelight filter (transmittance>560 nm). Retinoic acid extraction from liver was performed as formerly described in, e.g., Batten M L. et al. supra. Analyses of polar retinoids in plasma, eye and liver were performed with an Agilent 1100 HPLC and two tandem normal phase columns: a Varian Microsorb Silica 3 μm, 4.6×100 mm (Varian, Palo Alto, Calif.) and an Ultrasphere-Si, 5 μm, 4.6×250 mm column (Aleman T S, et al. supra). An isocratic normal phase system of hexane: 2-propanol:glacial acetic acid (1000:4.3:[…]; v/v/v) was used for elution at a flow rate of 1 ml/min at 20° C. with detection at 355 nm. Calibration was done with standards of all-trans-retinoic acid and 9-cis-retinoic acid purchased from Sigma-Aldrich. Analyses of non-polar retinoids in plasma, eye and liver were carried out by normal phase HPLC (Ultrasphere-Si, 5 μm, 4.6×250 mm, Beckman, Fullerton, Calif.) with 10% ethyl acetate and 90% hexane at a flow rate of 1.4 ml/min with detection at 325 nm by an HP1100 HPLC with a diode array detector and HP Chemstation A.03.03 software.

[2] = tested on: Rpe65^−/− mice; conditions: mouse, in vivo
Procedure: (§3) Electroretinogram (ERG)—ERGs were recorded on anesthetized mice as described in, e.g., Maeda A, et al. Role of photoreceptor-specific retinol dehydrogenase in the retinoid cycle in vivo.
(§4) Briefly, mice first were dark-adapted overnight prior to recording. Then under a safety light, mice were anesthetized by intraperitoneal injection of 20 μl/g body weight of 6 mg/ml ketamine and 0.44 mg/ml xylazine diluted with 10 mM sodium phosphate, pH 7.2, containing 100 mM NaCl. Pupils were dilated with 1% tropicamide. A contact lens electrode was placed on the eye and a reference electrode and ground electrode were positioned on the ear and tail, respectively. ERGs were recorded with the universal testing and electrophysiologic system (UTAS) E-3000 (LKC Technologies, Inc.).
(§5) Single-flash recording—White light flash stimuli were employed with a range of intensities (from −3.7 to 2.8 log cd·s·m^·2), and flash durations were adjusted according to intensity (from 20 μs to 1 ms). Two to five recordings were made at sufficient intervals between flash stimuli (from 10 s to 10 min) to allow mice to recover. Typically, four to eight animals were used for recording each point. The one-way ANOVA test was used for statistical analysis of responses. […]
(§6) Following dark-adaption for 3 days post-gavage, scotopic single flash ERGs were recorded and eyes were collected to assess 9-cis-retinal levels.

[3] = 9-cis-retinal levels in the eye after 3 daily doses; format: in vivo, Rpe65^−/− mice
Procedure: as §1

[4] = Retinoid levels in eyes after single doses of 9-cis-R-Ac; format: in vivo, Rpe65^−/− mice
Procedure: as §1

[5] = Clinical side effects after single doses of 9-cis-R-Ac; format: in vivo, Rpe65^−/− mice; conditions: single doses up to 50 mg/kg in soybean oil
Procedure: Single doses (2-50 mg/kg) of 9-cis-R-Ac in soybean oil were administered to 5-week-old Rpr65Rpe65^−/− mice to test whether the pre-prodrug 9-cis-R-Ac was capable of delivering artificial chromophore to the eye.
as §6

[6] = Plasma retention of 9-cis-retinyl acetate metabolites after single gastric gavage; format: in vivo, C57/Bl6 mice; conditions: for Absorption (plasma levels of fatty acid 9-cis-retinyl esters and 9-cis-retinol): compared to canola and rapeseed oils, 50 mg/kg gavage
Procedure: as §1
Several different oil-based preparations were prepared to test the absorption levels of 9-cis-R-Ac in plasma. More specifically, a single 50 mg/kg dose of 9-cis-retinyl acetate (50 mg/kg) suspended in 4 different vehicle oils was administrated by gastric gavage to 5-week-old C57/Bl6 mice and retinoid levels were determined in the plasma thereafter (n=5 for each time point per group).

[7] = tested on: Rpe65^−/− mice; conditions: mouse, in vivo; remark: listed apart in the source
Procedure: as §3, §4
(§7) Single-flash recording—White light flash stimuli were employed with a range of intensities (from −3.7 to 2.8 log cd·s·m^·2), and flash durations were adjusted according to intensity (from 20 μs to 1 ms). Two to five recordings were made at sufficient intervals between flash stimuli (from 10 s to 10 min) to allow mice to recover. Typically, four to eight animals were used for recording each point. The one-way ANOVA test was used for statistical analysis of responses.
To test this directly, 5-week-old Rpe65^−/− mice were gavaged daily with 9-cis-R-Ac in soybean oil at doses of 1, 4, or 12.5 mg/kg for 14 days. […]

[8] = tested on: Rpe65^−/− mice; conditions: mouse, in vivo; remark: listed apart in the source
Procedure: as §3, §4, §5

[9] = Retinoid analyses of eye and liver after 8-week regimens; format: in vivo, Rpe65^−/− mice; conditions: 8-week intermittent and daily regimens
Procedure: as §1
(§2) The dosing regimens are illustrated in FIG. 7.

[10] = tested on: Rpe65^−/− mice; conditions: mouse, in vivo; remark: listed apart in the source
Procedure: as §4, §7
Rpe65^−/− mice were split into two groups (an intermittent group and a daily group), each treated for a total of 8 weeks with 1 or 4 mg/kg of 9-cis-R-Ac. […] ERGs were recorded at day 28 and again at day 56, after which tissues were collected for retinoid analyses of the eye and liver and histology of the eye.

[11] = tested on: Rpe65^−/− mice; experiment: Retinal histology after intermittent and daily administration for 8 weeks; format: in vivo; conditions: for Retinal cross-section morphology: 8 weeks
Source text: Histology and Immunohistochemistry—Histological procedures employed for the eye analyses as described in Maeda A, et al. supra.
as §2

9-cis-retinal in eyes ([1]; 1 mg/kg daily for 14 days): No 9-cis-retinal was detected
9-cis-retinal in eyes ([1]; 4 mg/kg daily for 14 days): 38 ± 4 pmol
9-cis-retinal in eyes ([1]; 12.5 mg/kg daily for 14 days): 95 ± 14 pmol
Fatty acid 9-cis-retinyl esters in eyes ([1]; 4 and 12.5 mg/kg/day groups, 14 days): 1 pmol/eye
Fatty acid 9-cis-retinyl esters in livers ([1]; daily dosing 14 days, C57Bl/6 and Rpe65^−/− mice): accumulate in a dose-dependent manner
ERG effect of lower doses [2]: positive ERG effects
Lowest tested dose that provided significant ERG improvement [2]: 6.25 mg/kg
9-cis-retinal in the retinas ([3]; day 4, all treated mice (1, 4, 12.5 mg/kg/day for 3 days)): detected
9-cis-retinal in the retinas ([3]; day 9, after 3 daily doses): No 9-cis-retinal was found
9-cis-retinol in eyes ([4]; single dose 50 mg/kg): 43 pmol/eye
11-cis-retinoids in eyes ([4]; single doses): No 11-cis-retinoids were detected
9-cis-retinal in the eye ([4]; single doses 2 and 4 mg/kg): trace levels
Plasma levels of all-trans-retinol and fatty acid all-trans-retinyl esters ([6]; among the test vehicles and during the 23 h test period): did not differ significantly
Absorption (plasma levels of fatty acid 9-cis-retinyl esters and 9-cis-retinol) ([6]; in soybean oil): best absorption
Absorption (plasma levels of fatty acid 9-cis-retinyl esters and 9-cis-retinol) ([6]; in sunflower oil): best absorption
Time of highest plasma levels of 9-cis-retinoids ([6]; single 50 mg/kg gastric gavage, C57/Bl6 mice): 3 h
Lowest daily test dose evoking significant improvement in retinal function [7]: 1 mg/kg
Duration of positive ERG effect after treatment [8]: 4 to 6 days
9-cis-retinal in the eyes [9]: detected in a dose-dependent manner
Dose sufficient for significant improvement in ERG responses over control [10]: 1 mg/kg
Compound: CC(=O)OC/C=C(C)/C=C/C=C(C)\C=C\C1=C(C)CCCC1(C)C [9-cis-R-Ac, 9-cis-retinyl acetate]
all-trans-retinol and 9-cis-retinol in eyes ([1]; daily dosing 14 days, any group): Neither all-trans-retinol nor 9-cis-retinol was found
Fatty acid 9-cis-retinyl esters in eyes ([4]; single doses, all analyzed eyes): No fatty acid 9-cis-retinyl esters were detected
Clinical side effects [5]: no obvious clinical side effects
Retinal cross-section morphology ([11]; 1 mg/kg by either schedule, vs control mice): no significant change
Retinal cross-section morphology ([11]; 4 mg/kg daily or 4 mg/kg intermittent): improvement of rod outer segment (ROS) morphology
Effect on retina (photoreceptor outer segment lengths, nuclei in outer nuclear layer) ([11]; 8-week administration): dose-dependent protective effect
